Series [1] deals with organotypic hippocampal slice cultures. Nature of the series: Neuroprotection against hypoxia in organotypic hippocampal slice cultures (PI fluorescence in CA1). It is filed as cell-based, Wistar rat. The conditions noted are these: vs control (hypoxia only = 100% damage); 180 min hypoxia; compound present 45 min pre-hypoxia, during and 24 h post-hypoxia; PI fluorescence area in CA1. As to the method: Organotypic hippocampal slice cultures were prepared using the basic method of Pringle et al [Brain Res. 755, 36-46 (1997)] modified as follows:
Wistar rat pups (8-11 days old) were decapitated and the hippocampus rapidly dissected into ice-cold Gey's balanced salt solution supplemented with 4.5 mg/ml glucose. Slices were separated and plated onto Millicell CM culture inserts (4 per well) and maintained at 37° C./5% CO2 for 14 days. Maintenance medium consisted of 25% heat-inactivated horse serum, 25% Hank's balanced salt solution (HBSS) and 50% minimum essential medium with added Earle's salts (MEM) supplemented with 1 mM glutamine and 4.5 mg/ml glucose. Medium was changed every 3-4 days.
Experimental hypoxia was performed as described previously (Pringle et al., Stroke 27, 21-24 (1996)& Brain Res. 755, 36-46 (1997)]. Briefly, cultures were transferred to serum free medium (SFM-75% MEM, 25% HBSS supplemented with 1 mM glutamine and 4.5 mg/ml glucose) containing 5 μg/ml of the fluorescent exclusion dye propidium iodide (PI). Cultures were allowed to equilibrate in SFM for 60 minutes prior to imaging. PI fluorescence was detected using a Leica DMIL inverted microscope fitted with a rhodamine filter set. Any cultures in which PI fluorescence was detected at this stage were excluded from further study. Hypoxia was induced by transferring cultures to SFM (+PI) which had been saturated with 95% N2/5% CO2. Culture plates (without lids) were then sealed into an airtight chamber in which the atmosphere was saturated with 95% N2/5% CO2 by continuously blowing through gas at 10 L/minute for ten minutes before being sealed and placed in the incubator for 170 minutes (total time of hypoxia was therefore 180 minutes). At the end of the hypoxic period cultures were returned to normoxic SFM containing PI and placed back in the incubator for 24 hours.
Neuronal damage was assessed using ImageJ running on a PC. Images were captured using a CCD camera and saved for offline analysis. Light transmission images were captured prior to the addition of drugs, and PI fluorescence images recorded at the end of the 24-hour post-hypoxia recovery period. The area of the CA1 sub-region was determined from the transmission image. The area of PI fluorescence in the CA1 was measured using the threshold function on ImageJ, and neuronal damage expressed as the percentage of the CA1 in which PI fluorescence was detected above background.
Unpaired Student's t-tests were employed to ascertain statistical significance.
A series of compounds were examined for possible neuroprotection against hypoxia in organotypic hippocampal slice cultures. Compounds No. 4, 6, 7, 8, 10, 14, 15, 16, 17, 20, 21, 22 and 23 were dissolved in DMSO to a concentration of 1 mg/ml.
7β-hydroxy-epiandrosterone (7β-OH EPIA), a neuroprotective compound, at 100 nM concentrations, was employed as a positive control. A stock solution of 1 mg/ml was dissolved in ethanol. Final dilutions were made in SFM.
The efficacy of all compounds was assessed using a pre-during and post-hypoxia paradigm—compounds were present in the medium 45 minutes pre-hypoxia, the 3 hours of hypoxia and 24 hours post-hypoxia.

From patent publication US20090259043A1, “TRICYCLIC CYTOPROTECTIVE COMPOUNDS” (HUNTER-FLEMING LIMITED, priority 2005, published 2009) come the findings set out here.

As for `Cc1ccc(C)c2c3c([nH]c12)CCC(O)C3` (stereo not drawn), the melting point was in the range of 158 to 161 °C.

In the case of `Cc1ccc(C)c2c3c([nH]c12)CC(C(=O)O)CC3` (stereo not drawn), the melting point fell in the range of 228 to 230 °C.

As for `OC1CCc2[nH]c3ccccc3c2C1` (stereo not drawn) [Compound No. 4, 2,3,4,9-Tetrahydro-1H-carbazol-3-ol], the “% damage in hypoxia model with compound” value in series [1] is 58%.

In the case of `c1ccc2c3c([nH]c2c1)CCC1(C3)OCCO1` [Compound No. 6, 1,2,4,9-Tetrahydro-spiro[carbazole-3,2′-[1,3-dioxolane]], the “% damage in hypoxia model with compound” value in series [1] is 63%.

Regarding `O=C1CCc2[nH]c3ccccc3c2C1` [Compound No. 7, 1,2,4,9-Tetrahydro-3H-carbazol-3-one], the “% damage in hypoxia model with compound” value in series [1] came out at 70%.

For `O=C1CCc2[nH]c3ccccc3c21` [Compound No. 8, 3,4-dihydrocyclopenta[b]indol-1 (2H)-one], the “% damage in hypoxia model with compound” value in series [1] is 59%.

Turning to `Cc1ccc2c3c([nH]c2c1C)CCC(O)C3` (stereo not drawn) [Compound No. 10, 7,8-Dimethyl-2,3,4,9-tetrahydro-1H-carbazol-3-ol], the melting point fell in the range of 192 to 195 °C. The “% damage in hypoxia model with compound” value in series [1] is 76%.

For the molecule `COc1ccc2[nH]c3c(c2c1)CS(=O)(=O)CC3` [Compound No. 12, 8-Methoxy-1,3,4,5-tetrahydrothiopyrano[43-b]indole 2,2-dioxide], the melting point was 283 to 286 °C (dec.).

For the molecule `O=C(O)c1ccc2[nH]c3c(c2c1)CCCC3=O` [Compound No. 14, 1-Oxo-2,3,4,9-tetrahydro-1H-carbazole-6-carboxylic acid], the “% damage in hypoxia model with compound” value in series [1] was 53%.

With `COc1ccc2[nH]c3c(c2c1)CCC(C(=O)O)C3` (stereo not drawn) [Compound No. 15, 6-Methoxy-2,3,4,9-tetrahydro-11H-carbazole-2-carboxylic acid], the “% damage in hypoxia model with compound” value in series [1] was 65%.

In turn, `COc1ccc2[nH]c3c(c2c1)CCC3` [Compound No. 17, 7-Methoxy-1,2,3,4-tetrahydrocyclopenta[b]indole] came in with a melting point of 128 to 130 °C. Also, in series [1], the “% damage in hypoxia model with compound” value came to 35%.

The molecule `O=C(O)c1ccc2[nH]c3c(c2c1)CCC3` [Compound No. 18, 1,2,3,4-Tetrahydrocyclopenta[b]indole-7-carboxylic acid] yielded a melting point of 270 to 274 °C.

On to `O/N=C1\CCCc2[nH]c3ccccc3c21` [Compound No. 20, (4E)-1,2,3,9-Tetrahydro-4H-carbazol-4-one oxime], for which the “% damage in hypoxia model with compound” value in series [1] was determined as 54%.

For `O/N=C1\CCc2[nH]c3ccccc3c2C1` [Compound No. 21, (3E)-1,2,4,9-Tetrahydro-3H-carbazol-3-one oxime], the melting point is 173 to 175 °C (dec.). Besides, in series [1], the “% damage in hypoxia model with compound” value is listed as 40%.

`COc1ccc2[nH]c3c(c2c1)CC1(CC3)OCCO1` [Compound No. 22]: the melting point lay in the range of 168 to 169 °C. In addition, in series [1], the “% damage in hypoxia model with compound” value was determined as 75%.

On to `COc1ccc2[nH]c3c(c2c1)CCCC3` [compound 16, Methyl 2,3,4,9-tetrahydro-1H-carbazol-6-yl ether], for which the “% damage in hypoxia model with compound” value in series [1] was 60%.

On to `COc1ccc2[nH]c3c(c2c1)CC(=O)CC3` [compound 23, 6-Methoxy-1,2,4,9-tetrahydro-3H-carbazol-3-one], for which the “% damage in hypoxia model with compound” value in series [1] was determined as 57%.

A word on the melting point: it is the temperature of the solid-liquid transition.
